Data on 29 compounds can be found in patent US9795607B2, “Substituted pyrrolopyrimidine compounds, compositions thereof, and methods of treatment therewith” (Signal Pharmaceutical, LLC, priority 2013, dated 2017).

The first assay relates to Triple negative breast cancer cell line CAL51. The experiment in a line: Cell Titer Glo proliferation assay, CAL51. The class given is cell-based. Particulars: Homo sapiens, CAL-51; CAL51 cell proliferation (Table 1); read-out: Act. Level. In short, it runs like this:
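CAL51 cells grown in DMEM or RPMI1640 with 10% FBS and 2 mM L-glutamine, cultured overnight, then exposed to serially diluted compound (0.2% DMSO final) for 72 h. Viability read by Cell Titer Glo luminescence.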
In general terms: Cellular ATP, detected with luciferase, serves as a proxy for viable cell number.
Consider `COc1nc(Nc2ccnn2C)nc2[nH]cc(-c3ccncc3)c12` [Example 401, 4-methoxy-N-(1-methyl-1H-pyrazol-5-yl)-5-(pyridin-4-yl)-7H-pyrrolo[2,3-d]pyrimidin-2-amine], for which the IC50 lay in the range of 1000 to 10000 nM. Same read-out and setting: the result for `COc1cc(C(=O)NC2COC2)ccc1Nc1nc(OC)c2c(-c3ccc4[nH]c(C)nc4c3)c[nH]c2n1` [Example 404, 3-methoxy-4-(4-methoxy-5-(2-methyl-1H-benzo[d]imidazol-5-yl)-7H-pyrrolo[2,3-d]pyrimidin-2-ylamino)-N-(oxetan-3-yl)benzamide] reads 100 to 400 nM; that for `COc1nc(Nc2ccc(C(=O)N(C)C)cc2C)nc2[nH]cc(-c3cc(C)nc(F)c3)c12` [Example 420, 4-(5-(2-fluoro-6-methylpyridin-4-yl)-4-methoxy-7H-pyrrolo[2,3-d]pyrimidin-2-ylamino)-N,N,3-trimethylbenzamide], < 100 nM; that for `Cc1cc(C(=O)N(C)C)ccc1Nc1nc(OC(C)C)c2c(-c3ccnc(F)c3)c[nH]c2n1` [Example 402, 4-(5-(2-fluoropyridin-4-yl)-4-isopropoxy-7H-pyrrolo[2,3-d]pyrimidin-2-ylamino)-N,N,3-trimethylbenzamide], < 100 nM. On the same count and under the same terms, the result for `Cc1nc2ccc(-c3c[nH]c4nc(Nc5ccc(C(=O)NC6COC6)cc5Cl)nc(OC5CCOCC5)c34)cc2o1` [Example 438, 3-chloro-4-(5-(2-methylbenzo[d]oxazol-6-yl)-4-(tetrahydro-2H-pyran-4-yloxy)-7H-pyrrolo[2,3-d]pyrimidin-2-ylamino)-N-(oxetan-3-yl)benzamide] reads < 100 nM; that for `CNC(=O)c1ccc(-c2c[nH]c3nc(Nc4ccc(C(=O)NC)cc4Cl)nc(NC4CCOCC4)c23)cc1` [Example 433, 3-chloro-N-methyl-4-(5-(4-(methylcarbamoyl)phenyl)-4-(tetrahydro-2H-pyran-4-ylamino)-7H-pyrrolo[2,3-d]pyrimidin-2-ylamino)benzamide], < 100 nM; that for `COc1cc(C(=O)NC2COC2)ccc1Nc1nc(OC)c2c(-c3ccnnc3)c[nH]c2n1` [Example 405, 3-methoxy-4-(4-methoxy-5-(pyridazin-4-yl)-7H-pyrrolo[2,3-d]pyrimidin-2-ylamino)-N-(oxetan-3-yl)benzamide], 400 to 1000 nM.

Take `COc1cc(C(=O)NC2COC2)ccc1Nc1nc(OC)c2c(-c3cc(C)nc(F)c3)c[nH]c2n1` [Example 424, 4-(5-(2-fluoro-6-methylpyridin-4-yl)-4-methoxy-7H-pyrrolo[2,3-d]pyrimidin-2-ylamino)-3-methoxy-N-(oxetan-3-yl)benzamide]: the IC50 was 100 to 400 nM. The same measure, in the same setting: for `COc1cc(C(=O)NC2COC2)ccc1Nc1nc(OC)c2c(-c3cc(C)nc(Cl)c3)c[nH]c2n1` [Example 437, 4-(5-(2-chloro-6-methylpyridin-4-yl)-4-methoxy-7H-pyrrolo[2,3-d]pyrimidin-2-ylamino)-3-methoxy-N-(oxetan-3-yl)benzamide] the value was < 100 nM. Same read-out and setting: the result for `CNC(=O)c1ccc(-c2c[nH]c3nc(Nc4ccc(C(=O)NC)cc4Cl)nc(OC4CCCC4)c23)cc1` [Example 425, 3-chloro-4-(4-(cyclopentyloxy)-5-(4-(methylcarbamoyl)phenyl)-7H-pyrrolo[2,3-d]pyrimidin-2-ylamino)-N-methylbenzamide] reads < 100 nM. On the same count and under the same terms, the result for `COc1cc(C(=O)N(C)C2COC2)ccc1Nc1nc(OC)c2c(-c3ccnc(F)c3)c[nH]c2n1` [Example 413, 4-(5-(2-fluoropyridin-4-yl)-4-methoxy-7H-pyrrolo[2,3-d]pyrimidin-2-ylamino)-3-methoxy-N-methyl-N-(oxetan-3-yl)benzamide] reads 100 to 400 nM.

Staying with this assay, now noted: Homo sapiens, CAL-51; CAL51 cell proliferation, Cell Titer Glo; read-out: Act. Level.
Turning to `COc1cc(C(=O)NC2CN(C)C2)ccc1Nc1nc(OC(C)(C)C)c2c(-c3ccc4nc(C)oc4c3)c[nH]c2n1` [Example 354, 4-(4-tert-butoxy-5-(2-methylbenzo[d]oxazol-6-yl)-7H-pyrrolo[2,3-d]pyrimidin-2-ylamino)-3-methoxy-N-(1-methylazetidin-3-yl)benzamide], the IC50 is < 100 nM.

In the case of `Cc1nc2ccc(-c3c[nH]c4nc(Nc5cnn(C(C)C)c5Cl)nc(OC5CCCC5)c34)cc2o1` [Example 351, N-(5-chloro-1-isopropyl-1H-pyrazol-4-yl)-4-(cyclopentyloxy)-5-(2-methylbenzo[d]oxazol-6-yl)-7H-pyrrolo[2,3-d]pyrimidin-2-amine], the IC50 fell in the range of 100 to 400 nM.

On to `COc1cc(C(=O)NC2CN(C)C2)ccc1Nc1nc(OC2CC2)c2c(-c3ccc4nc(C)oc4c3)c[nH]c2n1` [Example 363, 4-(4-cyclopropoxy-5-(2-methylbenzo[d]oxazol-6-yl)-7H-pyrrolo[2,3-d]pyrimidin-2-ylamino)-3-methoxy-N-(1-methylazetidin-3-yl)benzamide], for which the IC50 is < 100 nM. On the same count and under the same terms, the result for `CNC(=O)c1ccc(-c2c[nH]c3nc(Nc4ccc(C(=O)NC5COC5)cc4Cl)nc(OC4CCC4)c23)cc1` [Example 333, 3-chloro-4-(4-cyclobutoxy-5-(4-(methylcarbamoyl)phenyl)-7H-pyrrolo[2,3-d]pyrimidin-2-ylamino)-N-(oxetan-3-yl)benzamide] reads < 100 nM; that for `CNC(=O)c1ccc(-c2c[nH]c3nc(Nc4ccc(C(=O)NC5CN(C)C5)cc4OC)nc(OC4CC4)c23)cc1` [Example 364, 4-(4-cyclopropoxy-5-(4-(methylcarbamoyl)phenyl)-7H-pyrrolo[2,3-d]pyrimidin-2-ylamino)-3-methoxy-N-(1-methylazetidin-3-yl)benzamide], 100 to 400 nM.

Turning to `Cc1nc2ccc(-c3c[nH]c4nc(Nc5cnn(CC(C)(C)O)c5Cl)nc(OC5CCCC5)c34)cc2o1` [Example 371, 1-(5-chloro-4-(4-(cyclopentyloxy)-5-(2-methylbenzo[d]oxazol-6-yl)-7H-pyrrolo[2,3-d]pyrimidin-2-ylamino)-1H-pyrazol-1-yl)-2-methylpropan-2-ol], the IC50 was < 100 nM. Still for that read-out and setting: the result for `CNC(=O)c1ccc(Nc2nc(OC3CC3)c3c(-c4ccn(C)n4)c[nH]c3n2)c(OC)c1` [Example 218, 4-(4-cyclopropoxy-5-(1-methyl-1H-pyrazol-3-yl)-7H-pyrrolo[2,3-d]pyrimidin-2-ylamino)-3-methoxy-N-methylbenzamide] reads 1000 to 10000 nM. As to `COc1cc(C(=O)NC2COC2)ccc1Nc1nc(OC2CCOCC2)c2c(-c3ccc4nc(C)oc4c3)c[nH]c2n1` [Example 368, 3-methoxy-4-(5-(2-methylbenzo[d]oxazol-6-yl)-4-(tetrahydro-2H-pyran-4-yloxy)-7H-pyrrolo[2,3-d]pyrimidin-2-ylamino)-N-(oxetan-3-yl)benzamide], the IC50 is < 100 nM. Same read-out and setting: for `COc1cc(C(=O)NC2COC2)ccc1Nc1nc(OC)c2c(-c3ccc4c(C)noc4c3)c[nH]c2n1` [Example 380, 3-methoxy-4-(4-methoxy-5-(3-methylbenzo[d]isoxazol-6-yl)-7H-pyrrolo[2,3-d]pyrimidin-2-ylamino)-N-(oxetan-3-yl)benzamide] the value was 100 to 400 nM; for `COc1cc(C(=O)NC2COC2)ccc1Nc1nc(OC(C)C)c2c(-c3ccc4nc(C)oc4c3)c[nH]c2n1` [Example 362, 4-(4-isopropoxy-5-(2-methylbenzo[d]oxazol-6-yl)-7H-pyrrolo[2,3-d]pyrimidin-2-ylamino)-3-methoxy-N-(oxetan-3-yl)benzamide], 100 to 400 nM. The same measure, in the same setting: for `COc1cc(C(=O)NC2COC2)ccc1Nc1nc(OC)c2c(-c3cn(C)nc3C)c[nH]c2n1` [Example 387, 4-(5-(1,3-dimethyl-1H-pyrazol-4-yl)-4-methoxy-7H-pyrrolo[2,3-d]pyrimidin-2-ylamino)-3-methoxy-N-(oxetan-3-yl)benzamide] the value was 1000 to 10000 nM. Still for that read-out and setting: the result for `CNC(=O)c1ccc(-c2c[nH]c3nc(Nc4ccc(C(=O)NC5COC5)cc4OC)nc(OC4CCC(C)(O)CC4)c23)cc1` (centres unmarked) [Example 337, 4-(4-((1s,4s)-4-hydroxy-4-methylcyclohexyloxy)-5-(4-(methylcarbamoyl)phenyl)-7H-pyrrolo[2,3-d]pyrimidin-2-ylamino)-3-methoxy-N-(oxetan-3-yl)benzamide] reads < 100 nM. With `COc1ccc(-c2c[nH]c3nc(Nc4ccc(C(=O)N(C)C)cc4C)nc(OC)c23)cc1` [Example 391, 4-(4-methoxy-5-(4-methoxyphenyl)-7H-pyrrolo[2,3-d]pyrimidin-2-ylamino)-N,N,3-trimethylbenzamide], the IC50 was 100 to 400 nM. For `COc1cc(C(=O)NC2CN(C)C2)ccc1Nc1nc(OC2CCOCC2)c2c(-c3ccc4nc(C)oc4c3)c[nH]c2n1` [Example 367, 3-methoxy-N-(1-methylazetidin-3-yl)4-(5-(2-methylbenzo[d]oxazol-6-yl)-4-(tetrahydro-2H-pyran-4-yloxy)-7H-pyrrolo[2,3-d]pyrimidin-2-ylamino)benzamide], the IC50 lay in the range of 100 to 400 nM. Regarding `COc1cc(C(=O)N2CC2C)ccc1Nc1nc(OC2CCCC2)c2c(-c3ccc4nc(C)oc4c3)c[nH]c2n1` [Example 335, (R)-(4-(4-(cyclopentyloxy)-5-(2-methylbenzo[d]oxazol-6-yl)-7H-pyrrolo[2,3-d]pyrimidin-2-ylamino)-3-methoxyphenyl)(2-methylaziridin-1-yl)methanone], the IC50 fell in the range of 400 to 1000 nM.

For the compound `COc1cc(C(=O)NC2COC2)ccc1Nc1nc(OC)c2c(-c3ccncn3)c[nH]c2n1` [Example 395, 3-methoxy-4-(4-methoxy-5-(pyrimidin-4-yl)-7H-pyrrolo[2,3-d]pyrimidin-2-ylamino)-N-(oxetan-3-yl)benzamide], the IC50 lay within 1000 to 10000 nM. On to `COCCn1ncc(Nc2nc(OC3CCCC3)c3c(-c4ccc5nc(C)oc5c4)c[nH]c3n2)c1Cl` [Example 378, N-(5-chloro-1-(2-methoxyethyl)-1H-pyrazol-4-yl)-4-(cyclopentyloxy)-5-(2-methylbenzo[d]oxazol-6-yl)-7H-pyrrolo[2,3-d]pyrimidin-2-amine], for which the IC50 was < 100 nM.

As for `COc1cc(C(=O)NC2COC2)ccc1Nc1nc(OC)c2c(-c3ccnc(Cl)c3)c[nH]c2n1` [Example 394, 4-(5-(2-chloropyridin-4-yl)-4-methoxy-7H-pyrrolo[2,3-d]pyrimidin-2-ylamino)-3-methoxy-N-(oxetan-3-yl)benzamide], the IC50 fell in the range of 100 to 400 nM.
